Tested on: 5-lipoxygenase
Assay: 5-lipoxygenase inhibition: oxygen uptake of washed human platelets after arachidonic acid (oxygraph cells)
Assay type: cell-based
Details: arachidonic acid added to washed human platelets; oxygen uptake versus control cell; read-out: approximate ED50, 5-lipoxygenase inhibition (decrease of oxygen uptake)
Method: The compounds of the present invention were also tested for 5-lipoxygenase inhibition. Arachidonic acid is added to washed human platlets and the oxygen uptake is measured using oxygraph cells. A decrease of oxygen uptake versus the control cell indicates inhibition of lipoxygenase. For a fuller description of the procedure see, Wallach, et al., Biochim. Biophys. Acta. 231:445 (1976).

IC50: ~10 µM
Compound: COC(=O)c1cc(NCc2cccnc2)ccc1O [Example 3, 5-(3-Pyridinylmethylamino)salicylic Acid, Methyl Ester]
